These results are taken from PubChem BioAssay AID180 (DTP/NCI, 2004).

Structures are written as SMILES. Where “and” joins values, the source holds several entries; their conditions need not be identical. Equal entries are not always repeated.

The experiment deals with BDF1 mice, Adenocarcinoma 755 s.c., tumor weight T/C. Put plainly: NCI In Vivo Anticancer Drug Screen. Data for tumor model Adenocarcinoma 755 (subcutaneous) in B6D2F1 (BDF1) mice. The settings on record: endpoint: mean tumor weight, higher = larger tumour. A digest of the protocol:
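Values express treated (T) relative to vehicle-dosed control (C) animals, based on survival or tumour size measured after compound treatment of mice bearing a transplanted tumour.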

Where [1] appears, read: dose: 25.0 mg/kg/injection, schedule: Q01DX011 (ip), vehicle: methylcellulose (MC).

By T/C is commonly meant the result in the treated group divided by that in the control group, in per cent.

In the case of `CCOc1ccc2nc(S(N)(=O)=O)sc2c1`, the T/C runs as follows: (dose: 50.0 mg/kg/injection, schedule: Q01DX011 (ip), vehicle: methylcellulose (MC)) 60 % of control; (dose: 100.0 mg/kg/injection, schedule: Q01DX011 (ip), vehicle: carboxymethylcellulose (CMC)) 23 % of control and 30 % of control; (dose: 100.0 mg/kg/injection, schedule: Q01DX011 (ip), vehicle: methylcellulose (MC)) 89 % of control; (dose: 200.0 mg/kg/injection, schedule: Q01DX011 (ip), vehicle: carboxymethylcellulose (CMC)) 13 % of control; (dose: 400.0 mg/kg/injection, schedule: Q01DX011 (ip), vehicle: methylcellulose (MC)) 19 % of control.

On to `CC[C@]1(O)C[C@H]2CN(CCc3c([nH]c4ccccc34)[C@@](C(=O)OC)(c3cc4c(cc3OC)N(C)[C@H]3[C@@](O)(C(=O)OC)[C@H](OC(C)=O)[C@]5(CC)C=CCN6CC[C@]43[C@@H]65)C2)C1`, for which the T/C (dose: 0.05 mg/kg/injection, schedule: Q01DX011 (ip), vehicle: carboxymethylcellulose (CMC)) was 68 % of control and 76 % of control; the T/C (dose: 0.1 mg/kg/injection, schedule: Q01DX011 (ip), vehicle: carboxymethylcellulose (CMC)) was 94 % of control and 87 % of control.

Regarding `O=C(NP(=O)(N1CC1)N1CC1)OCc1ccccc1`, the T/C is 68 % of control (dose: 0.38 mg/kg/injection, schedule: Q01DX011 (ip), vehicle: saline); 35 % of control (dose: 0.75 mg/kg/injection, schedule: Q01DX011 (ip), vehicle: saline); 53 % of control (dose: 1.5 mg/kg/injection, schedule: Q01DX011 (ip), vehicle: saline); 74 % of control (dose: 2.25 mg/kg/injection, schedule: Q01DX011 (ip), vehicle: other); 115 % of control (dose: 2.25 mg/kg/injection, schedule: Q01DX011 (ip), vehicle: saline); 18 % of control and 35 % of control (dose: 3.0 mg/kg/injection, schedule: Q01DX011 (ip), vehicle: saline). For the same compound, the T/C was 83 % of control (dose: 4.5 mg/kg/injection, schedule: Q01DX011 (ip), vehicle: other); 98 % of control (dose: 4.5 mg/kg/injection, schedule: Q01DX011 (ip), vehicle: saline); 18 % of control (dose: 6.0 mg/kg/injection, schedule: Q01DX011 (ip), vehicle: saline); 52 % of control (dose: 9.0 mg/kg/injection, schedule: Q01DX011 (ip), vehicle: other); 56 % of control (dose: 9.0 mg/kg/injection, schedule: Q01DX011 (ip), vehicle: saline); 2 % of control (dose: 12.0 mg/kg/injection, schedule: Q01DX011 (ip), vehicle: saline). For the same compound, the T/C was 12 % of control (dose: 18.0 mg/kg/injection, schedule: Q01DX011 (ip), vehicle: other); 29 % of control (dose: 18.0 mg/kg/injection, schedule: Q01DX011 (ip), vehicle: saline); 1 % of control (dose: 24.0 mg/kg/injection, schedule: Q01DX011 (ip), vehicle: saline).

In the case of `O=C(O)C(O)C(F)(F)F` (stereo not drawn), the T/C by setting is: (dose: 31.0 mg/kg/injection, schedule: Q01DX011 (ip), vehicle: other) 89 % of control; (dose: 62.5 mg/kg/injection, schedule: Q01DX011 (ip), vehicle: other) 82 % of control; (dose: 125.0 mg/kg/injection, schedule: Q01DX011 (ip), vehicle: other) 111 % of control; (dose: 250.0 mg/kg/injection, schedule: Q01DX011 (ip), vehicle: other) 46 % of control.

With `C[C@]12CCC(=O)C=C1CC[C@@H]1[C@@H]2[C@@H](O)C[C@@]2(C)[C@H]1CC[C@]2(O)C(=O)COC(=O)CCC(=O)O`, under “dose: 700.0 mg/kg/injection, schedule: Q01DX011 (sc), vehicle: steriod suspending solution”, the T/C was 10 % of control.

Take `Cn1ccc(N)nc1=O`: the T/C runs as follows: (dose: 15.0 mg/kg/injection, schedule: Q01DX011 (ip), vehicle: methylcellulose (MC)) 88 % of control; (dose: 31.0 mg/kg/injection, schedule: Q01DX011 (ip), vehicle: methylcellulose (MC)) 108 % of control; (dose: 62.0 mg/kg/injection, schedule: Q01DX011 (ip), vehicle: methylcellulose (MC)) 98 % of control; (dose: 125.0 mg/kg/injection, schedule: Q01DX011 (ip), vehicle: methylcellulose (MC)) 84 % of control.

In the case of `CC(=O)[C@H]1CC[C@H]2[C@@H]3C[C@H](C)C4=CC(=O)CC[C@]4(C)[C@H]3C(=O)C[C@]12C`, the T/C reads like this: (dose: 25.0 mg/kg/injection, schedule: Q01DX011 (sc), vehicle: steriod suspending solution) 65 % of control; (dose: 50.0 mg/kg/injection, schedule: Q01DX011 (sc), vehicle: steriod suspending solution) 78 % of control; (dose: 200.0 mg/kg/injection, schedule: Q01DX011 (sc), vehicle: steriod suspending solution) 35 % of control and 43 % of control; (dose: 400.0 mg/kg/injection, schedule: Q01DX011 (sc), vehicle: steriod suspending solution) 21 % of control; (dose: 800.0 mg/kg/injection, schedule: Q01DX011 (sc), vehicle: steriod suspending solution) 30 % of control.

As to `CCCCCCCCCCCCCCCC[n+]1ccccc1`, the T/C by setting is: (dose: 0.12 mg/kg/injection, schedule: Q01DX011 (ip), vehicle: water) 89 % of control; (dose: 0.25 mg/kg/injection, schedule: Q01DX011 (ip), vehicle: water) 79 % of control; (dose: 0.5 mg/kg/injection, schedule: Q01DX011 (ip), vehicle: water) 89 % of control.

On to `c1nc([N+]23CCC(CC2)CC3)c2[nH]cnc2n1`, for which the T/C runs as follows: (dose: 12.5 mg/kg/injection, schedule: Q01DX011 (ip), vehicle: saline) 101 % of control; (dose: 20.0 mg/kg/injection, schedule: Q01DX011 (ip), vehicle: saline) 98 % of control; (dose: 25.0 mg/kg/injection, schedule: Q01DX011 (ip), vehicle: saline) 56 % of control; (dose: 30.0 mg/kg/injection, schedule: Q01DX011 (ip), vehicle: saline) 50 % of control; (dose: 40.0 mg/kg/injection, schedule: Q01DX011 (ip), vehicle: saline) 41 % of control; (dose: 50.0 mg/kg/injection, schedule: Q01DX011 (ip), vehicle: saline) 19 % of control and 29 % of control.

Regarding `S=c1nc[nH]c2c1ncn2C1CCCC1`, the T/C reads like this: (dose: 3.0 mg/kg/injection, schedule: Q01DX011 (ip), vehicle: methylcellulose (MC)) 69 % of control; (dose: 6.0 mg/kg/injection, schedule: Q01DX011 (ip), vehicle: methylcellulose (MC)) 50 % of control; (dose: 12.0 mg/kg/injection, schedule: Q01DX011 (ip), vehicle: methylcellulose (MC)) 22 % of control; (dose: 15.0 mg/kg/injection, schedule: Q01DX011 (ip), vehicle: carboxymethylcellulose (CMC)) 12 % of control and 17 % of control; (dose: 15.0 mg/kg/injection, schedule: Q01DX011 (oral), vehicle: carboxymethylcellulose (CMC)) 13 % of control; under setting [1], 4 % of control and 5 % of control. Further, the T/C runs as follows: (dose: 30.0 mg/kg/injection, schedule: Q01DX011 (ip), vehicle: carboxymethylcellulose (CMC)) 6 % of control and 10 % of control; (dose: 30.0 mg/kg/injection, schedule: Q01DX011 (oral), vehicle: carboxymethylcellulose (CMC)) 7 % of control; (dose: 60.0 mg/kg/injection, schedule: Q01DX011 (ip), vehicle: carboxymethylcellulose (CMC)) 2 % of control and 3 % of control; (dose: 60.0 mg/kg/injection, schedule: Q01DX011 (oral), vehicle: carboxymethylcellulose (CMC)) 4 % of control; (dose: 120.0 mg/kg/injection, schedule: Q01DX011 (oral), vehicle: carboxymethylcellulose (CMC)) 3 % of control; (dose: 162.0 mg/kg/injection, schedule: Q01DX001 (ip), vehicle: carboxymethylcellulose (CMC)) 94 % of control. The T/C is, setting by setting: (dose: 325.0 mg/kg/injection, schedule: Q01DX001 (ip), vehicle: carboxymethylcellulose (CMC)) 7 % of control; (dose: 1300.0 mg/kg/injection, schedule: Q01DX001 (ip), vehicle: carboxymethylcellulose (CMC)) 1 % of control.

`Brc1ncnc2c1ncn2C1CCCS1` (stereo not drawn): the T/C is 75 % of control under setting [1]; 66 % of control (dose: 75.0 mg/kg/injection, schedule: Q01DX011 (ip), vehicle: methylcellulose (MC)); 86 % of control (dose: 225.0 mg/kg/injection, schedule: Q01DX011 (ip), vehicle: methylcellulose (MC)).

In the case of `CN(C)[C@@H]1C(=O)C(C(=O)NCNCCCC(=O)O)=C(O)[C@@]2(O)C(=O)C3=C(O)c4c(O)cccc4[C@@](C)(O)[C@H]3C[C@@H]12`, the T/C (dose: 87.5 mg/kg/injection, schedule: Q01DX011 (ip), vehicle: saline) is 106 % of control and 115 % of control; the T/C (dose: 175.0 mg/kg/injection, schedule: Q01DX011 (ip), vehicle: saline) was 54 % of control and 78 % of control; the T/C (dose: 350.0 mg/kg/injection, schedule: Q01DX011 (ip), vehicle: saline) is 51 % of control and 52 % of control.

As to `C=CC(=O)NCNC(=O)CCBr`, the T/C runs as follows: (dose: 12.5 mg/kg/injection, schedule: Q01DX011 (ip), vehicle: carboxymethylcellulose (CMC)) 62 % of control; (dose: 25.0 mg/kg/injection, schedule: Q01DX011 (ip), vehicle: carboxymethylcellulose (CMC)) 34 % of control; (dose: 50.0 mg/kg/injection, schedule: Q01DX011 (ip), vehicle: carboxymethylcellulose (CMC)) 1 % of control.
